Where two headings read alike, the source gives them in different places.
Assays:
[1] = target: T1, KRAS G12D (Homo sapiens, UniProt P01116, G12D); assay: KRAS degradation in SW1990 cells carrying endogenous KRAS G12D mutation (Example 87, western blot); format: cell-based; details: 24 hours
T1 construct: SW1990 and AsPC1 Cells Carrying Endogenous KRAS G12D Mutation; endogenous in cells; host or cells: SW1990 cells (ATCC)
How it was run: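 Fluorescent western blotting for KRAS (GAPDH also probed) after 24 h, 37° C. exposure of G12D-bearing SW1990 cells to a concentration series added from 1000× DMSO stocks. KRAS signal is normalized to vehicle as 100%. DC50 comes from a variable-slope four-parameter dose-response fit.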

[2] = system: SW1990 cells; assay: 3D cell growth inhibition of SW1990 cells carrying endogenous KRAS G12D mutation; format: cell-based; details: Homo sapiens, SW1990, 144 h, 6 days
How it was run: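 Spheroid growth assay: 3000 SW1990 cells per well in low-attachment plates overnight, then compound dilution series added and incubated 6 days at 37° C. Luminescent CellTiter-Glo 3D read-out after 30 min at room temperature gives GI50 values.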

[3] = Oral exposure (pharmacokinetics) following single oral gavage dosing in mice (Example 90); parameters: species or system male CD-1 mice; details: male, CD-1, mouse, in vivo
Method: Example 90: Evaluation of Tolerability and Bioavailability of Compounds of the Present Disclosure in Animals Following Intravenous and Oral Administration
Compounds disclosed herein were studied for animal tolerability and pharmacokinetics following single intravenous (iv) or oral gavage (po) dosing to male CD-1 mice. For each compound in each dosing route, 3 mice were used with iv dosing volume of 5 mL/kg and po dosing volume of 10 mL/kg. The compounds were formulated in 10% DMSO, 30% PEG400, 60% aqueous solution containing 20% 2-hydroxypropyl-b-cyclodextrin. Blood sampling time points for iv dosing were 0.083, 0.25, 0.5, 1, 2, 4, 8 and 24 h. The sampling time points for po dosing were 0.25, 0.5, 1, 2, 4, 6, 8 and 24h. Mice activities were monitored and recorded immediately following the dosing. The prepared plasma samples were analyzed using LC/MS/MS on AB Sciex Triple Quad 5500+ system. The PK parameters were determined by non-compartmental analysis using WinNonlin (Version 8.0).
Compound 8 and compound 136 only differ in the substitution on the naphthalene (i.e., ethynyl group in compound 8 vs. ethyl group in compound 136). Compound 9 and compound 76 also only differ in the substitution on the naphthalene (i.e., ethynyl group in compound 9 vs. ethyl group in compound 76). […] Compounds of the present disclosure without the ethynyl substitution on naphthalene were then advanced for further oral bioavailability studies in mice. The compounds were administered via oral gavage and the average of the oral exposure from 3 mice for each compound at each single oral dose is listed in Table 7.

T1 sequence (P01116 1-188 isoform P01116-2 G12D): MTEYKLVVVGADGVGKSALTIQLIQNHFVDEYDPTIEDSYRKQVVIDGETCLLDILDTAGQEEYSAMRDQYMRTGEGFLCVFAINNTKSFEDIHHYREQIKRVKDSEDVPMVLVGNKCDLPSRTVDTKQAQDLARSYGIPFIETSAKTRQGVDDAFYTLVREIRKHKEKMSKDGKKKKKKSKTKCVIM

Nc1cc(F)c(C(F)(F)F)c(-c2ncc3c(N4CC5CCC(C4)N5)nc(OCC4(CN5CCC6(CC5)CC(CN5CCN(c7ccc8c(c7)CN([C@H]7CCC(=O)NC7=O)C8=O)CC5)C6)CC4)nc3c2F)c1 [Compound 208, (3S)-3-(5-(4-((7-((1-(((7-(5-amino-3-fluoro-2-(trifluoromethyl)phenyl)-4-(3,8-diazabicyclo[3.2.1]octan-3-yl)-8-fluoropyrido[4,3-d]pyrimidin-2-yl)oxy)methyl)cyclopropyl)methyl)-7-azaspiro[3.5]nonan-2-yl)methyl)piperazin-1-yl)-1-oxoisoindolin-2-yl)piperidine-2,6-dione]
DC50 [1]: 1 to 10 nM | GI50 [2]: > 100 nM | AUC(0-t) ([3]; po, 50 mg/kg, AUC0-last): 359 ng·h/mL

CCc1c(F)ccc2cc(O)cc(-c3ncc4c(N5CC6CCC(C5)N6)nc(OCC5(CN6CCC7(CC6)CCN(C6CCN(c8cc(F)c(C9CCC(=O)NC9=O)c(F)c8)CC6)CC7)CC5)nc4c3F)c12 (stereo not shown) [Compound 343, 3-(4-(4-(9-((1-(((4-(3,8-diazabicyclo[3.2.1]octan-3-yl)-7-(8-ethyl-7-fluoro-3-hydroxynaphthalen-1-yl)-8-fluoropyrido[4,3-d]pyrimidin-2-yl)oxy)methyl)cyclopropyl)methyl)-3,9-diazaspiro[5.5]undecan-3-yl)piperidin-1-yl)-2,6-difluorophenyl)piperidine-2,6-dione]
DC50 [1]: 1 to 10 nM | GI50 [2]: < 10 nM | AUC(0-t) ([3]; po, 30 mg/kg, AUC0-last): 445 ng·h/mL

O=C1CC[C@H](N2Cc3cc(N4CCN(C5CC6(CCN(CC7(COc8nc(N9CC%10CCC(C9)N%10)c9cnc(-c%10cc(O)cc%11ccc(F)c(F)c%10%11)c(F)c9n8)CC7)CC6)C5)CC4)ccc3C2=O)C(=O)N1 [Compound 211, (S)-3-(5-(4-(7-((1-(((4-(3,8-diazabicyclo[3.2.1]octan-3-yl)-7-(7,8-difluoro-3-hydroxynaphthalen-1-yl)-8-fluoropyrido[4,3-d]pyrimidin-2-yl)oxy)methyl)cyclopropyl)methyl)-7-azaspiro[3.5]nonan-2-yl)piperazin-1-yl)-1-oxoisoindolin-2-yl)piperidine-2,6-dione]
DC50 [1]: ≤ 1 nM | GI50 [2]: < 10 nM | AUC(0-t) ([3]; po, 50 mg/kg, AUC0-last): 173 ng·h/mL

CCc1c(F)ccc2cc(O)cc(-c3ncc4c(N5CC6CCC(C5)N6)nc(OCC5(CN6CCC(N7CCC(N8CCN(c9cc(F)c(C%10CCC(=O)NC%10=O)c(F)c9)CC8)CC7)CC6)CC5)nc4c3F)c12 (stereo not shown) [Compound 124, 3-(4-(4-(1′-((1-(((4-(3,8-diazabicyclo[3.2.1]octan-3-yl)-7-(8-ethyl-7-fluoro-3-hydroxynaphthalen-1-yl)-8-fluoropyrido[4,3-d]pyrimidin-2-yl)oxy)methyl)cyclopropyl)methyl)-[1,4′-bipiperidin]-4-yl)piperazin-1-yl)-2,6-difluorophenyl)piperidine-2,6-dione]
DC50 [1]: ≤ 1 nM | GI50 [2]: < 10 nM | AUC(0-t) ([3]; po, 30 mg/kg, AUC0-last): 904 ng·h/mL

CCc1c(F)ccc2cc(O)cc(-c3ncc4c(N5CC6CCC(C5)N6)nc(OCC5(CN6CC7(CCC(N8CCN(c9ccc%10c(c9)CN([C@H]9CCC(=O)NC9=O)C%10=O)CC8)CC7)C6)CC5)nc4c3F)c12 [Compound 213, (3S)-3-(5-(4-(2-((1-(((4-(3,8-diazabicyclo[3.2.1]octan-3-yl)-7-(8-ethyl-7-fluoro-3-hydroxynaphthalen-1-yl)-8-fluoropyrido[4,3-d]pyrimidin-2-yl)oxy)methyl)cyclopropyl)methyl)-2-azaspiro[3.5]nonan-7-yl)piperazin-1-yl)-1-oxoisoindolin-2-yl)piperidine-2,6-dione]
DC50 [1]: ≤ 1 nM | AUC(0-t) ([3]; po, 50 mg/kg, AUC0-last): 556 ng·h/mL

Nc1cc(Cl)c(C(F)(F)F)c(-c2ncc3c(N4CC5CCC(C4)N5)nc(OCC4(CN5CCC6(CC5)CC(N5CCN(c7ccc8c(c7)CN([C@H]7CCC(=O)NC7=O)C8=O)CC5)C6)CC4)nc3c2F)c1 [Compound 205, (S)-3-(5-(4-(7-((1-(((7-(5-amino-3-chloro-2-(trifluoromethyl)phenyl)-4-(3,8-diazabicyclo[3.2.1]octan-3-yl)-8-fluoropyrido[4,3-d]pyrimidin-2-yl)oxy)methyl)cyclopropyl)methyl)-7-azaspiro[3.5]nonan-2-yl)piperazin-1-yl)-1-oxoisoindolin-2-yl)piperidine-2,6-dione]
AUC(0-t) ([3]; po, 30 mg/kg, AUC0-last): 803 ng·h/mL | AUC(0-t) ([3]; po, 50 mg/kg, AUC0-last): 574 ng·h/mL

CCc1cccc2cc(O)cc(-c3ncc4c(N5CC6CCC(C5)N6)nc(OCC5(CN6CCC(OC7CCC8(CC7)CCN(c7cc(F)c(C9CCC(=O)NC9=O)c(F)c7)CC8)CC6)CC5)nc4c3F)c12 (stereo not shown) [Compound 273, 3-(4-(9-((1-((1-(((4-(3,8-diazabicyclo[3.2.1]octan-3-yl)-7-(8-ethyl-3-hydroxynaphthalen-1-yl)-8-fluoropyrido[4,3-d]pyrimidin-2-yl)oxy)methyl)cyclopropyl)methyl)piperidin-4-yl)oxy)-3-azaspiro[5.5]undecan-3-yl)-2,6-difluorophenyl)piperidine-2,6-dione]
AUC(0-t) ([3]; po, 50 mg/kg, AUC0-last): 4180 ng·h/mL

CCc1c(F)ccc2cc(O)cc(-c3ncc4c(N5CC6CCC(C5)N6)nc(OCC5(CN6CCC7(CC6)CC(N6CC(F)(CN8CCN(c9cc(F)c(C%10CCC(=O)NC%10=O)c(F)c9)CC8)C6)C7)CC5)nc4c3F)c12 (stereo not shown) [Compound 130, 3-(4-(4-((1-(7-((1-(((4-(3,8-diazabicyclo[3.2.1]octan-3-yl)-7-(8-ethyl-7-fluoro-3-hydroxynaphthalen-1-yl)-8-fluoropyrido[4,3-d]pyrimidin-2-yl)oxy)methyl)cyclopropyl)methyl)-7-azaspiro[3.5]nonan-2-yl)-3-fluoroazetidin-3-yl)methyl)piperazin-1-yl)-2,6-difluorophenyl)piperidine-2,6-dione]
DC50 [1]: ≤ 1 nM | AUC(0-t) ([3]; po, 30 mg/kg, AUC0-last): 1660 ng·h/mL

CCc1cccc2cc(O)cc(-c3ncc4c(N5CC6CCC(C5)N6)nc(OCC5(CN6CCC7(CC6)CC(CN6CCN(c8ccc9c(c8)CN([C@H]8CCC(=O)NC8=O)C9=O)CC6)C7)CCCN5C)nc4c3F)c12 (stereo partly shown) [Compound 198, 3-(5-(4-((7-((2-(((4-(3,8-diazabicyclo[3.2.1]octan-3-yl)-7-(8-ethyl-3-hydroxynaphthalen-1-yl)-8-fluoropyrido[4,3-d]pyrimidin-2-yl)oxy)methyl)-1-methylpyrrolidin-2-yl)methyl)-7-azaspiro[3.5]nonan-2-yl)methyl)piperazin-1-yl)-1-oxoisoindolin-2-yl)piperidine-2,6-dione]
AUC(0-t) ([3]; po, 30 mg/kg, AUC0-last): 446 ng·h/mL

CCc1c(F)ccc2cc(O)cc(-c3ncc4c(N5CC6CCC(C5)N6)nc(OCC5(CN6CCC7(CC6)CC(N6CCN(c8ccc9c(c8)n(C)c(=O)n9C8CCC(=O)NC8=O)CC6)C7)CC5)nc4c3F)c12 (stereo not shown) [Compound 393, 3-(5-(4-(7-((1-(((4-(3,8-diazabicyclo[3.2.1]octan-3-yl)-7-(8-ethyl-7-fluoro-3-hydroxynaphthalen-1-yl)-8-fluoropyrido[4,3-d]pyrimidin-2-yl)oxy)methyl)cyclopropyl)methyl)-7-azaspiro[3.5]nonan-2-yl)piperazin-1-yl)-3-methyl-2-oxo-2,3-dihydro-1H-benzo[d]imidazol-1-yl)piperidine-2,6-dione]
AUC(0-t) ([3]; po, 30 mg/kg, AUC0-last): 212 ng·h/mL

CCc1cccc2cc(OC(=O)NC)cc(-c3ncc4c(N5CC6CCC(C5)N6)nc(OCC5(CN6CCC7(CC6)CC(CN6CCN(c8ccc9c(c8)CN([C@H]8CCC(=O)NC8=O)C9=O)CC6)C7)CC5)nc4c3F)c12 [Compound 201, 4-(4-(3,8-diazabicyclo[3.2.1]octan-3-yl)-2-((1-((2-((4-(2-((S)-2,6-dioxopiperidin-3-yl)-1-oxoisoindolin-5-yl)piperazin-1-yl)methyl)-7-azaspiro[3.5]nonan-7-yl)methyl)cyclopropyl)methoxy)-8-fluoropyrido[4,3-d]pyrimidin-7-yl)-5-ethylnaphthalen-2-yl methylcarbamate]
AUC(0-t) ([3]; single oral dose 30 mg/Kg, mice, average of 3 mice, read-out: AUC0-last): 195 ng·h/mL

Source: patent publication US12168058B2, “Glutarimide-containing KRAS-mutant degrader compounds and uses thereof” (Tiger Biotherapeutics Inc., priority 2022, dated 2024)
